According to patent US10688031B2, “Low-toxicity sophorolipid-containing composition and use therefor” (Saraya Co., Ltd., priority 2013, dated 2020):

What was measured:
HeLa cells = assay: Cytotoxicity test using HeLa cells (MTT assay); type: cell-based, human; settings: 48 hours of treatment
Experimental: HeLa cells (Kurabo Industries, Ltd.) were seeded in a 96-well plate to a concentration of 2×10^4 cells/well and cultured in Dulbecco's Modified Eagle Medium (produced by Nissui Pharmaceutical Co., Ltd.) containing 10% NCS (Newborn Calf Serum: produced by Invitrogen), non-essential amino acids, 58 μg/ml L-glutamic acid, 60 μg/ml kanamycin at 37° C., 5% CO2 for 72 hours. The medium was replaced with media containing the samples. After 48 hours, each medium was replaced with a medium containing 1 mg/ml MTT (3-(4,5-dimethyl-2-thiazolyl)-2,5-diphenyl-2H-tetrazolium bromide). After the treatment was allowed to proceed for 2 hours, formazan dye was extracted with isopropanol. Absorbance at a wavelength of 570 nm was measured. The viability % of the cells was calculated according to the following Formula.
The cell viability was calculated from the above MTT assay, and the cell lethal concentration (IC50) was determined from the obtained cell viability.

[1] = Critical micelle concentration (CMC) and surface tension-reducing ability, Wilhelmy method; type: physicochemical
Experimental: The critical micelle concentration (CMC) and surface tension-reducing ability were measured according to the Wilhelmy method. The measurements were performed at pH 7 at 20° C. using a CBVP-Z automatic surface tensiometer (produced by Kyowa Interface Science Co., Ltd.). For pH adjustment, an aqueous sodium hydroxide solution or an aqueous hydrochloric acid solution was used.
The critical micelle concentration (CMC) and surface tension-reducing ability of these SL-containing compositions were measured, and their performance as surfactants (wettability, solubilizing power, detergency, and foamability) was evaluated. The critical micelle concentration (CMC) and surface tension-reducing ability were measured in the same manner as in Test Example 2 according to the Wilhelmy method. Specifically, the measurement was performed at pH 7 at 20° C. using a CBVP-Z automatic surface tensiometer (produced by Kyowa Interface Science Co., Ltd.).

Compound	cell lethal concentration (IC50) (HeLa cells) [ppm]	CMC ([1]; Table 5, repeated from Test Example 2) [ppm]	Critical micelle concentration (CMC) ([1]; pH 7, 20° C., Table 4) [ppm]	Surface tension-reducing ability ([1]; pH 7, 20° C., Table 4) [mN/m]
CCCCCCCCCCCCOS(=O)(=O)[O-].[Na+] [SLS, Sodium Lauryl Sulfate]	<10	300	300	34.0
CCCCCCCC/C=C\CCCCCCCC(=O)O [oleic acid]	300	–	–	–
